Reference: PubChem BioAssay (NCI)
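Grown in 96-well plates, cells were treated for 48 hours with each compound at five concentrations. Insufficient inhibition: endpoint recorded as highest concentration tested. GI50: concentration for 50% inhibition of growth. TGI marks complete inhibition of growth.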

Legend:
Test in all cases: NCI tumour cell line growth inhibition, 48 h
NCI-H23 lung = tested on: NCI-H23 lung
NCI-H460 lung = tested on: NCI-H460 lung
NCI-H522 lung = tested on: NCI-H522 lung
NCI/ADR-RES ovarian = tested on: NCI/ADR-RES ovarian
OVCAR-3 ovarian = tested on: OVCAR-3 ovarian
OVCAR-4 ovarian = tested on: OVCAR-4 ovarian
OVCAR-5 ovarian = tested on: OVCAR-5 ovarian
OVCAR-8 ovarian = tested on: OVCAR-8 ovarian
PC-3 prostate = tested on: PC-3 prostate
RPMI-8226 leukemia = tested on: RPMI-8226 leukemia
RXF 393 renal = tested on: RXF 393 renal
SF-268 CNS = tested on: SF-268 CNS
SF-295 CNS = tested on: SF-295 CNS
SF-539 CNS = tested on: SF-539 CNS
SK-MEL-2 melanoma = tested on: SK-MEL-2 melanoma
SK-MEL-28 melanoma = tested on: SK-MEL-28 melanoma
SK-MEL-5 melanoma = tested on: SK-MEL-5 melanoma
SK-OV-3 ovarian = tested on: SK-OV-3 ovarian
SN12C renal = tested on: SN12C renal
SNB-19 CNS = tested on: SNB-19 CNS
SNB-75 CNS = tested on: SNB-75 CNS
SR leukemia = tested on: SR leukemia
SW-620 colon = tested on: SW-620 colon
T-47D breast = tested on: T-47D breast
TK-10 renal = tested on: TK-10 renal
U251 CNS = tested on: U251 CNS
UACC-257 melanoma = tested on: UACC-257 melanoma
UACC-62 melanoma = tested on: UACC-62 melanoma
UO-31 renal = tested on: UO-31 renal

COc1cccc(COc2cc(-n3cnc4ccccc43)sc2C(N)=O)c1
GI50 (NCI-H23 lung): > 16.6 µM | TGI (NCI-H23 lung): > 25 µM | GI50 (NCI-H460 lung): 9.23 µM | TGI (NCI-H460 lung): > 25 µM | GI50 (NCI-H522 lung): 9.92 µM | TGI (NCI-H522 lung): > 25 µM | GI50 (NCI/ADR-RES ovarian): 1.75 µM | TGI (NCI/ADR-RES ovarian): > 25 µM | GI50 (OVCAR-3 ovarian): 5.09 µM | TGI (OVCAR-3 ovarian): > 25 µM | GI50 (OVCAR-4 ovarian): > 25 µM | TGI (OVCAR-4 ovarian): > 25 µM | GI50 (OVCAR-5 ovarian): 14.2 µM | TGI (OVCAR-5 ovarian): > 25 µM | GI50 (OVCAR-8 ovarian): 11.9 µM | TGI (OVCAR-8 ovarian): > 25 µM | GI50 (PC-3 prostate): > 25 µM | TGI (PC-3 prostate): > 25 µM | GI50 (RPMI-8226 leukemia): > 25 µM | TGI (RPMI-8226 leukemia): > 25 µM | GI50 (RXF 393 renal): 5.69 µM | TGI (RXF 393 renal): > 25 µM | GI50 (SF-268 CNS): 5.88 µM | TGI (SF-268 CNS): > 25 µM | GI50 (SF-295 CNS): > 15.6 µM | TGI (SF-295 CNS): > 25 µM | GI50 (SF-539 CNS): 16 µM | TGI (SF-539 CNS): > 25 µM | GI50 (SK-MEL-2 melanoma): > 15.4 µM | TGI (SK-MEL-2 melanoma): > 25 µM | GI50 (SK-MEL-28 melanoma): > 24 µM | TGI (SK-MEL-28 melanoma): > 25 µM | GI50 (SK-MEL-5 melanoma): > 19.4 µM | TGI (SK-MEL-5 melanoma): > 25 µM | GI50 (SK-OV-3 ovarian): > 16.2 µM | TGI (SK-OV-3 ovarian): > 25 µM | GI50 (SN12C renal): > 20.5 µM | TGI (SN12C renal): > 25 µM | GI50 (SNB-19 CNS): 14.4 µM | TGI (SNB-19 CNS): > 25 µM | GI50 (SNB-75 CNS): > 12.2 µM | TGI (SNB-75 CNS): > 25 µM | GI50 (SR leukemia): 6.98 µM | TGI (SR leukemia): > 25 µM | GI50 (SW-620 colon): > 11.1 µM | TGI (SW-620 colon): > 25 µM | GI50 (T-47D breast): > 25 µM | TGI (T-47D breast): > 25 µM | GI50 (TK-10 renal): > 25 µM | TGI (TK-10 renal): > 25 µM | GI50 (U251 CNS): > 13.6 µM | TGI (U251 CNS): > 25 µM | GI50 (UACC-257 melanoma): > 25 µM | TGI (UACC-257 melanoma): > 25 µM | GI50 (UACC-62 melanoma): 18.1 µM | TGI (UACC-62 melanoma): > 25 µM | GI50 (UO-31 renal): > 25 µM | TGI (UO-31 renal): > 25 µM
